# Patent US20090004185A1, “AMINO-SUBSTITUTED QUINAZOLINE DERIVATIVES AS INHIBITORS OF BETA-CATENIN/TCF-4 PATHWAY AND CANCER TREATMENT AGENTS” (WYETH, priority 2007, published 2009)
# System: β-catenin/Tcf-4
# Test: cells
# Type: cell-based
# Details: Homo sapiens, SW480, 24 h, Tcf 33.13 cells derived from SW480; 24 hours of incubation with compound; ratio Firefly/Renilla luciferase
# Excerpt: Background cell line: SW480 colorectal carcinoma DNA constructs:
# 1) Tcf-4-Luc: Tcf-4 binding sites driving Firefly Luciferase in the pGL3 vector—to measure the activity of β-catenin/Tcf-4;
# (§1) 2) SV40-Luc: SV40 binding site driving Firefly Luciferase in the pGL3 vector—as a control for non-specific inhibitors; and
# (§2) 3) SV40-R-Luc: SV40 binding site driving Renilla Luciferase in the pGL3 vector—as an internal control for cell number and toxicity.
# This screen uses 3 cell lines derived from SW480 and selected to contain the above luciferase reporters integrated into their chromosomes as follows: […]
# (§3) Cells: Tcf22C11 and SV5A8 were grown in the presence of 500 μg/ml G418 and Tcf 33.13 was grown in the presence of 500 μg/ml G418+125 μg/ml Zeocin to maintain the integrated reporters. The cells were trypsinized and plated at 1×10^4 cells/well in opaque 96 well plates.
# The compounds were diluted as follows: The compounds were stored frozen in dimethyl sulfoxide (DMSO) at […]. Compounds were initially titrated in DMSO to make a 1000×DMSO stock solution. Compounds were then diluted 1:25 into media/DMSO (DMEM+10% FBS+9% DMSO). Using the Biomek Multimek, the diluted compounds were mixed well and immediately added to the plated cells in a 1:40 dilution. The final concentration of DMSO in the assay plates was 0.316% DMSO.
# (§4) Assay Readout: The luciferase signal was detected using a luciferase detection kit from Promega. Until December 2003, Promega's Dual-Luciferase® Reporter (DLR™) Assay System was used to detect luciferase activity. Briefly, after 24 hours of incubation with compound, culture media was removed by aspiration and 20 ul of passive lysis buffer (Promega) per well was added. The plates were shaken for 15 min. Firefly substrate was then added and the resulting luminescence was immediately read on a CCD camera imaging device or a luminometer. After quantifying the firefly luminescence, the reaction was quenched, and the Renilla luciferase reaction was initiated simultaneously by adding Stop & Glo® Reagent to the same sample. Renilla luciferase was then quantified using the CCD camera or luminometer.
# Promega's Dual-Glo™ Luciferase Assay System can be used for luciferase detection. […] Briefly, after 24 hours of incubation with compound, culture media was removed by aspiration and 75 ul of fresh medium was added. Add 75 ul of Dual-Glo Luciferase Reagent (Promega) to each well and mix by shaking for 10 minutes on a plate shaker. Then, measure the firefly luminescence on a CCD camera imaging device or a luminometer. After quantifying the firefly luminescence, add 75 ul of Dual-Glo Stop & Glo Reagent (Promega) to each well and mix for 10 minutes. Renilla luciferase was then quantified using the CCD camera or luminometer.
# (§5) This assay was meant to confirm primary leads and determine IC50s. Compounds were tested at titrated dilutions. The raw data for this assay was reported in protocol 2463-B. Protocol 2463-C contains the IC50 calculations based on the raw data. The data calculations were done as follows:
# (§6) The data was expressed as % of control for both Firefly and Renilla Luciferase. The ratio of FF/Renilla (F/R) was then calculated and averaged between duplicate plates. The data was then plotted using LSW Data Analysis in Microsoft Excel. IC50s were determined by plotting the data in the LSW Data Analysis program using model 33. The IC50s (nM) for all three cell lines were reported.
row,IC50 [nM],Compound
1,> 2920,"CNc1nc(NCc2ccc(NC(=O)COCc3ccccc3)cc2)c2ccccc2n1 [Example 2, 2-(benzyloxy)-N-[4-({[2-(methylamino)quinazolin-4-yl]amino}methyl)phenyl]acetamide]"
2,> 6020,"CNc1nc(NCc2ccc(NC(=O)c3cc(F)ccc3C)cc2)c2ccccc2n1 [Example 1, 5-fluoro-2-methyl-N-[4-({[2-(methylamino)quinazolin-4-yl]amino}methyl)phenyl]benzamide]"

# Same assay, conditions: Homo sapiens, Tcf22C11, 24 h, Tcf 22C11 cells derived from SW480; 24 hours of incubation with compound; ratio Firefly/Renilla luciferase
row,IC50 [nM],Compound
1,> 2920,"CNc1nc(NCc2ccc(NC(=O)COCc3ccccc3)cc2)c2ccccc2n1 [Example 2, 2-(benzyloxy)-N-[4-({[2-(methylamino)quinazolin-4-yl]amino}methyl)phenyl]acetamide]"
2,> 6020,"CNc1nc(NCc2ccc(NC(=O)c3cc(F)ccc3C)cc2)c2ccccc2n1 [Example 1, 5-fluoro-2-methyl-N-[4-({[2-(methylamino)quinazolin-4-yl]amino}methyl)phenyl]benzamide]"

# System: SV40-Luc
# Test: SV40-Luc control luciferase reporter assay, SV 5A8 cell line (SV40-Luc and SV40-R-Luc), control for non-specific inhibitors
# Type: cell-based, human
# Details: Homo sapiens, SV5A8, 24 h, SV 5A8 cells derived from SW480; 24 hours of incubation with compound; ratio Firefly/Renilla luciferase
# Excerpt: Background cell line: SW480 colorectal carcinoma DNA constructs: […]
# as §1, §2
# This screen uses 3 cell lines derived from SW480 and selected to contain the above luciferase reporters integrated into their chromosomes as follows:
# SV 5A8—SV40-Luc and SV40-R-Luc
# as §3
# Compounds: 20-24 hours after cell plating, compounds were added at titrated concentrations between […]. The compounds were diluted as follows: The compounds were stored frozen in dimethyl sulfoxide (DMSO) at […]. Compounds were initially titrated in DMSO to make a 1000×DMSO stock solution. Compounds were then diluted 1:25 into media/DMSO (DMEM+10% FBS+9% DMSO). Using the Biomek Multimek, the diluted compounds were mixed well and immediately added to the plated cells in a 1:40 dilution. The final concentration of DMSO in the assay plates was 0.316% DMSO.
# as §4
# Promega's Dual-Glo™ Luciferase Assay System can be used for luciferase detection. It was similar to the DLR Assay, however, unlike the DLR which has to be read immediately due to decaying signal, the signal in the Dual-Glo™ Luciferase Assay was stable for up to 2 hours. Briefly, after 24 hours of incubation with compound, culture media was removed by aspiration and 75 ul of fresh medium was added. Add 75 ul of Dual-Glo Luciferase Reagent (Promega) to each well and mix by shaking for 10 minutes on a plate shaker. Then, measure the firefly luminescence on a CCD camera imaging device or a luminometer. After quantifying the firefly luminescence, add 75 ul of Dual-Glo Stop & Glo Reagent (Promega) to each well and mix for 10 minutes. Renilla luciferase was then quantified using the CCD camera or luminometer.
# as §5, §6
row,Compound,IC50 [nM]
1,"CN(C)c1nc(NCc2ccc(NC(=O)c3ccc(F)cc3)cc2)c2ccc(C#N)cc2n1 [Example 89, N-[4-({[7-cyano-2-(dimethylamino)quinazolin-4-yl]amino}methyl)phenyl]-4-fluorobenzamide]",> 21000
2,"CN(C)c1nc(NCc2ccc(NC(=O)c3ccc(F)cc3)cc2)c2ccc(C=O)cc2n1 [Example 92, N-[4-({[2-(dimethylamino)-7-formylquinazolin-4-yl]amino}methyl)phenyl]-4-fluorobenzamide]",> 17900
3,"CNc1nc(NCc2ccc(NC(=O)c3ccc(Cl)cc3)cc2)c2cc(C)ccc2n1 [Example 18, 4-chloro-N-[4-({[6-methyl-2-(methylamino)quinazolin-4-yl]amino}methyl)phenyl]benzamide]",> 5790
4,"CN(C)c1nc(NCc2ccc(NC(=O)c3ccc(F)cc3)cc2)c2ccc(CO)cc2n1 [Example 93, N-[4-({[2-(dimethylamino)-7-(hydroxymethyl)quinazolin-4-yl]amino}methyl)phenyl]-4-fluorobenzamide]",> 10400
5,"CNc1nc(NCc2ccc(NC(=O)c3ccc(F)cc3)cc2)c2cc(C)ccc2n1 [Example 24, 4-fluoro-N-[4-({[6-methyl-2-(methylamino)quinazolin-4-yl]amino}methyl)phenyl]benzamide]",> 602
6,"CNc1nc(NCc2ccc(NC(=O)c3ccc(Cl)cc3)cc2)c2cccc(C)c2n1 [Example 191, 4-chloro-N-[4-({[8-methyl-2-(methylamino)quinazolin-4-yl]amino}methyl)phenyl]benzamide]",> 1450
7,"CN(C)Cc1ccc2c(NCc3ccc(NC(=O)c4ccc(F)cc4)cc3)nc(N(C)C)nc2c1 [Example 91, N-{4-[({2-(dimethylamino)-7-[(dimethylamino)methyl]quinazolin-4-yl}amino)methyl]phenyl}-4-fluorobenzamide]",> 9170
8,"C=Cc1ccc2c(NCc3ccc(NC(=O)c4ccc(F)cc4)cc3)nc(N(C)C)nc2c1 [Example 87, N-[4-({[2-(dimethylamino)-7-vinylquinazolin-4-yl]amino}methyl)phenyl]-4-fluorobenzamide]",> 20900
9,"CNc1nc(NCc2ccc(NC(=O)c3ccc(C)cc3)cc2)c2ccccc2n1 [Example 12, 4-methyl-N-[4-({[2-(methylamino)quinazolin-4-yl]amino}methyl)phenyl]benzamide]",> 25200
10,"CC(O)c1ccc2c(NCc3ccc(NC(=O)c4ccc(F)cc4)cc3)nc(N(C)C)nc2c1 (stereo not drawn) [Example 95, N-[4-({[2-(dimethylamino)-7-(1-hydroxyethyl)quinazolin-4-yl]amino}methyl)phenyl]-4-fluorobenzamide]",> 20200
11,"CCc1ccc2c(NCc3ccc(NC(=O)c4ccc(F)cc4)cc3)nc(N(C)C)nc2c1 [Example 88, N-[4-({[2-(dimethylamino)-7-ethylquinazolin-4-yl]amino}methyl)phenyl]-4-fluorobenzamide]",> 2600
12,"CNc1nc(NCc2ccc(NC(=O)c3ccc(Cl)cc3)cc2)c2ccccc2n1 [Example 10, 4-chloro-N-[4-({[2-(methylamino)quinazolin-4-yl]amino}methyl)phenyl]benzamide]",2190
13,"CNc1nc(NCc2ccc(NC(=O)c3ccc(C#N)cc3)cc2)c2ccccc2n1 [Example 21, 4-cyano-N-[4-({[2-(methylamino)quinazolin-4-yl]amino}methyl)phenyl]benzamide]",> 12200
14,"CNc1nc(NCc2ccc(NC(=O)c3ccc(Cl)nc3)cc2)c2cccc(C)c2n1 [Example 183, 6-chloro-N-[4-({[8-methyl-2-(methylamino)quinazolin-4-yl]amino}methyl)phenyl]nicotinamide]",> 2890
15,"CNc1nc(NCc2ccc(NC(=O)c3ccc(F)cc3)cc2)c2ccccc2n1 [Example 13, 4-fluoro-N-[4-({[2-(methylamino)quinazolin-4-yl]amino}methyl)phenyl]benzamide]",> 778

# Further lines, results first:
row,IC50 [nM],Compound
1,> 2580,"Cc1ccc2c(NCc3ccc(NC(=O)c4ccc(F)cc4)cc3)nc(N3CCN[C@H](C)C3)nc2c1 [Example 225, 4-fluoro-N-{4-[({7-methyl-2-[(3R)-3-methylpiperazin-1-yl]quinazolin-4-yl}amino)methyl]phenyl}benzamide]"
2,> 2890,"CNc1nc(NCc2ccc(NC(=O)c3ccc(Cl)cc3)cc2)c2c(C)cccc2n1 [Example 193, 4-chloro-N-[4-({[5-methyl-2-(methylamino)quinazolin-4-yl]amino}methyl)phenyl]benzamide]"
3,> 752,"CNc1nc(NCc2ccc(NC(=O)c3ccc(F)cc3)cc2)c2ccc(C)cc2n1 [Example 230, 4-fluoro-N-[4-({[7-methyl-2-(methylamino)quinazolin-4-yl]amino}methyl)phenyl]benzamide]"
4,> 2910,"Cc1ccc2c(NCc3ccc(NC(=O)c4ccc(F)cc4)cc3)nc(N(C)C)nc2c1 [Example 199, N-[4-({[2-(dimethylamino)-7-methylquinazolin-4-yl]amino}methyl)phenyl]-4-fluorobenzamide]"
5,> 3010,"CNc1nc(NCc2ccc(NC(=O)c3ccc(F)cc3)cc2)c2c(C)cccc2n1 [Example 192, 4-fluoro-N-[4-({[5-methyl-2-(methylamino)quinazolin-4-yl]amino}methyl)phenyl]benzamide]"
6,> 5010,"Cc1ccc2c(NCc3ccc(NC(=O)c4ccc(F)cc4)cc3)nc(N3CCNC(C)(C)C3)nc2c1 [Example 236, N-[4-({[2-(3,3-dimethylpiperazin-1-yl)-7-methylquinazolin-4-yl]amino}methyl)phenyl]-4-fluorobenzamide]"
7,> 2660,"Cc1ccc2c(NCc3ccc(NC(=O)c4ccc(F)cc4)cc3)nc(N3CCNCC3)nc2c1 [Example 208, 4-fluoro-N-(4-{[(7-methyl-2-piperazin-1-ylquinazolin-4-yl)amino]methyl}phenyl)benzamide]"
8,> 2830,"Cc1ccc2c(NCc3ccc(NC(=O)c4ccc(F)cc4)cc3)nc(N3CCC3)nc2c1 [Example 202, N-(4-{[(2-azetidin-1-yl-7-methylquinazolin-4-yl)amino]methyl}phenyl)-4-fluorobenzamide]"
